Literature values in US10674726B2, “Composition” (Conopco, Inc., priority 2013, dated 2020).

Conditions: at neutral pH

Critical Micelle Concentration [mg/L]	SMILES
30	CCCCCCCC(CC(=O)O)OC(=O)CC(CCCCCCC)OC1OC(C)C(O)C(O)C1OC1OC(C)C(O)C(O)C1O (centres unmarked) [dirhamnolipid, 3-[3-[4,5-dihydroxy-6-methyl-3-(3,4,5-trihydroxy-6-methyloxan-2-yl)oxyoxan-2-yl]oxydecanoyloxy]decanoic acid]
20	CCCCCCCC(CC(=O)O)OC(=O)CC(CCCCCCC)O[C@@H]1O[C@@H](C)[C@H](O)[C@@H](O)[C@H]1O (stereo partly drawn) [mono-rhamnolipid, 3-[3-[(2R,3R,4R,5R,6S)-3,4,5-trihydroxy-6-methyloxan-2-yl]oxydecanoyloxy]decanoic acid]
